Starred links: 1 amine or outer side, 2 acyl side, 3 side chain; linkers in the order of their positions; H or OH if unused. Positions of bridges follow the written chain, without caps; N, C: chain ends. Residues, ends and D or L forms follow the SMILES beside them. X1 = O=C(C[*:2])NCCNC(=O)c1ccc(C2=N[C@H](C(=O)[*:1])CS2)cc1
Experiments:
BCL-w = target: T1, BCL-w (Homo sapiens, UniProt Q92843); assay: SPR binding assay, BCL-w; details: affinity fitting, mean ± SD of three independent experiments
T1 construct: BCL-w (residues 6–152); vector-borne tag of pET-22b (Ni-NTA purification implies a His tag); made in house; host or cells: E. coli BL21 (DE3)
Description: (§1) The DNA fragments encoding human BCL-XL ([…], with […] removed), BCL-w (residues 6–152), MCL-1 (residues 152–308) and BFL-1 (residues 1–151) as previously reported[18] were cloned into a pET-22b vector (Invitrogen), respectively. A chimeric human BCL-2 (including residues 1–50 and 92–207) was constructed, by removing the internal long loop (residues 51–91) and replacing its residues 35–50 with residues 33–48 of BCL-XL to solubilize the protein[14], and then it was cloned into a pET28a-Sumo vector (Invitrogen). All BCL-2 mutants (G101V, F104L, Y103D, D111A) were generated by mutagenic PCR, according to the QuikChange (Stratagene) protocol.
(§2) SPR assays were performed using a Biacore T200 instrument in running buffer consisting 10 mM PBS, 50 μM EDTA and 0.05% Tween-20 at 25 °C. Biotinylated proteins were immobilized on a CAP sensor chip (Cytiva, 28920234). […] The binding affinities were quantified by the Biacore evaluation software using 1:1 binding model. The reproducibility of the assays was confirmed by performing replicate determinations.

BCL-2-G101V = target: T2, BCL-2-G101V (Homo sapiens, UniProt P10415, DEL35-91/G101V/INS34DVEENRTEAPEGTESE); assay: SPR binding assay, BCL-2 G101V mutant; details: affinity fitting, mean ± SD of three independent experiments
T2 construct: A chimeric human BCL-2 (including residues 1–50 and 92–207) was constructed; SUMO (pET28a-Sumo vector); made in house; host or cells: E. coli BL21 (DE3)
Description: as §1, §2

BCL-2-D103Y = target: T3, BCL-2-D103Y (Homo sapiens, UniProt P10415, D103Y/DEL35-91/INS34DVEENRTEAPEGTESE); assay: SPR binding assay, BCL-2 D103Y mutant; details: affinity fitting, mean ± SD of three independent experiments
T3 construct: A chimeric human BCL-2 (including residues 1–50 and 92–207) was constructed; SUMO (pET28a-Sumo vector); made in house; host or cells: E. coli BL21 (DE3)
Description: as §1, §2

BCL-2-F104L = target: T4, BCL-2-F104L (Homo sapiens, UniProt P10415, DEL35-91/F104L/INS34DVEENRTEAPEGTESE); assay: SPR binding assay, BCL-2 F104L mutant; details: affinity fitting, mean ± SD of three independent experiments
T4 construct: A chimeric human BCL-2 (including residues 1–50 and 92–207) was constructed; SUMO (pET28a-Sumo vector); made in house; host or cells: E. coli BL21 (DE3)
Description: as §1, §2

BCL-2-D111A = target: T5, BCL-2-D111A (Homo sapiens, UniProt P10415, D111A/DEL35-91/INS34DVEENRTEAPEGTESE); assay: SPR binding assay, BCL-2 D111A mutant
T5 construct: A chimeric human BCL-2 (including residues 1–50 and 92–207) was constructed; SUMO (pET28a-Sumo vector); made in house; host or cells: E. coli BL21 (DE3)

BCL-XL = target: T6, BCL-XL (Homo sapiens, UniProt Q07817, DEL27-81); assay: SPR binding assay, BCL-XL; details: affinity fitting, mean ± SD of three independent experiments, 25 °C
T6 construct: human BCL-XL (residues 1–210, with 27–81 and 210–233 removed); vector-borne tag of pET-22b (Ni-NTA purification implies a His tag); made in house; host or cells: E. coli BL21 (DE3)
Description: as §1, §2

MCL-1 = MCL-1 (Homo sapiens, UniProt Q07820); assay: SPR binding assay, MCL-1; details: NB = no binding
Description: as §1, §2

BFL-1 = target: T7, BFL-1 (Homo sapiens, UniProt Q16548); assay: SPR binding assay, BFL-1; details: NB = no binding
T7 construct: BFL-1 (residues 1–151); vector-borne tag of pET-22b (Ni-NTA purification implies a His tag); made in house; host or cells: E. coli BL21 (DE3)
T7 sequence (Q16548 1-151): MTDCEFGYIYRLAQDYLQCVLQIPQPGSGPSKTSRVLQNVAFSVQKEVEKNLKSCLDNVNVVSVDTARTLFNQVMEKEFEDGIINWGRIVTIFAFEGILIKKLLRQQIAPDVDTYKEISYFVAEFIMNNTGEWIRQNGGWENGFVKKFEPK
Description: as §1, §2

T1 sequence (Q92843 6-152): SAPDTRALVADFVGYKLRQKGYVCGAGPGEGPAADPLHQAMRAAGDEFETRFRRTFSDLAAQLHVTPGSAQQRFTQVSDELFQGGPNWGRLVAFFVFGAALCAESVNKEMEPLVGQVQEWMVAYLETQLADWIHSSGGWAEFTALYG
Sequence of MCL-1 (Q07820 152-308): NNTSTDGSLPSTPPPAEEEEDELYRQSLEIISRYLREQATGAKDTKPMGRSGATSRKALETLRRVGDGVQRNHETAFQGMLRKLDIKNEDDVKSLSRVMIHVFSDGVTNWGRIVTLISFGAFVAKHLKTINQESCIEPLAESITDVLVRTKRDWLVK

C[C@@H]1NC(=O)[C@@H]2CCCN2C(=O)[C@@H]2CSC(=N2)c2ccc(cc2)C(=O)NCCNC(=O)CSC[C@@H](C(N)=O)NC(=O)[C@H](CCC(=O)O)NC(=O)[C@H](Cc2ccc(O)cc2)NC(=O)[C@H](CC(=O)O)NC(=O)[C@H](Cc2c[nH]c3ccccc23)NC(=O)CNC(=O)[C@H](Cc2ccc(O)cc2)NC(=O)[C@H](CCCNC(=N)N)NC1=O [cp1] (PARYGWDYEC-NH2; linker N-10 via X1)
Kd (BCL-w): 1.98 ± 0.39 µM | Kd (BCL-2-G101V): 1 ± 0.13 µM | Kd (BCL-2-D103Y): 0.36 ± 0.03 µM | Kd (BCL-2-F104L): 1.62 ± 0.36 µM | Kd (BCL-2-D111A): 5.34 ± 1 µM | Kd (BCL-XL): > 12.1 µM | Kd (MCL-1): > 12.8 µM | Kd (BFL-1): > 12.8 µM
